Measured values as given in patent US9670227B2, “Thienopyrimidine derivatives, a process for their preparation and pharmaceutical compositions containing them” (LES LABORATOIRES SERVIER, priority 2013, dated 2017).

Key:
[1] = system: H929 multiple myeloma tumour line; assay: In vitro cytotoxicity, Microculture Tetrazolium Assay; type: cell-based; conditions: Homo sapiens, NCI-H929, 48 h, H929 cells, 48 hours exposure, MTT; read-out: IC50 (μM) MTT H929
Method: The cytotoxicity studies were carried out on the H929 multiple myeloma tumour line.
The cells are distributed onto microplates and exposed to the test compounds for 48 hours.

[2] = molecular target: Mcl-1 protein (UniProtKB primary accession number: Q07820) (Homo sapiens, UniProt Q07820); assay: Inhibition of Mcl-1 by fluorescence polarisation, Method 1; type: binding; conditions: fluorescence polarisation test; Method 2 values are underlined in the patent (underlining not visible here); read-out: IC50 (M) Mcl-1 FP
Summary of the method: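 Buffer of 10 mM HEPES pH 7.4 with 150 mM NaCl and 0.05% Tween 20 held 5 nM Mcl-1 and 1 nM fluorescein-tagged ligand (final). Compounds were tested as 11-point serial dilutions at 5% final DMSO, and binding was read by FP.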

Mcl-1 protein, sequence (Q07820 whole entry): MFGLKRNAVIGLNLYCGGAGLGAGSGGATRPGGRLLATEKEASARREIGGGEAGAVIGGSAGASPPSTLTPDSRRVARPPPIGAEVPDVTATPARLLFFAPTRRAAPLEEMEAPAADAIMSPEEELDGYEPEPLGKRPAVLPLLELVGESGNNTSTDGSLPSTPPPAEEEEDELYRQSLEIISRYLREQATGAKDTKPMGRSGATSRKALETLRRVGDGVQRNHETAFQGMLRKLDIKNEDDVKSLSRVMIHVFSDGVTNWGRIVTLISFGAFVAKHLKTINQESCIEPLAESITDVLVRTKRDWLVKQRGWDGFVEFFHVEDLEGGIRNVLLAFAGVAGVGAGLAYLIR

Row | Compound | IC50 [2] [M] | IC50 [1] [µM]
1 | Cc1c(-c2c(-c3ccc(F)o3)sc3ncnc(OC(Cc4ccccc4OCCOCCO)C(=O)O)c23)ccc(OCCN2CCN(C)CC2)c1Cl [Example 195, (2R)-2-{[(5Sa)-5-{3-chloro-2-methyl-4-[2-(4-methylpiperazin-1-yl)ethoxy]phenyl}-6-(5-fluorofuran-2-yl)thieno[2,3-d]pyrimidin-4-yl]oxy}-3-{2-[2-(2-hydroxyethoxy)ethoxy]phenyl}propanoic acid] | 5.5e-09 | 0.311
2 | COCCOCCOc1ccccc1CC(Oc1ncnc2sc(-c3ccc(F)o3)c(-c3ccc(OCCN4CCN(C)CC4)c(Cl)c3C)c12)C(=O)O [Example 196, (2R)-2-{[(5Sa)-5-{3-chloro-2-methyl-4-[2-(4-methylpiperazin-1-yl)ethoxy]phenyl}-6-(5-fluorofuran-2-yl)thieno[2,3-d]pyrimidin-4-yl]oxy}-3-{2-[2-(2-methoxyethoxy)ethoxy]phenyl}propanoic acid] | 5.6e-09 | 0.076
3 | COc1ccccc1CC(Oc1ncnc2sc(-c3ccc(F)o3)c(-c3ccc(OCCN(C)C)c(Cl)c3C)c12)C(=O)O [Example 199, (2R)-2-{[(5Sa)-5-{3-chloro-4-[2-(dimethylamino)ethoxy]-2-methylphenyl}-6-(5-fluorofuran-2-yl)thieno[2,3-d]pyrimidin-4-yl]oxy}-3-(2-methoxyphenyl)propanoic acid] | 6.6e-09 | 0.28
4 | Cc1c(-c2c(-c3ccc(F)o3)sc3ncnc(OC(Cc4ccccc4OCC(F)(F)F)C(=O)O)c23)ccc(OCCN(C)C)c1Cl [Example 200, (2R)-2-{[(5Sa)-5-{3-chloro-4-[2-(dimethylamino)ethoxy]-2-methylphenyl}-6-(5-fluorofuran-2-yl)thieno[2,3-d]pyrimidin-4-yl]oxy}-3-[2-(2,2,2-trifluoroethoxy)phenyl]propanoic acid] | 6.1e-09 | 0.106
5 | Cc1c(-c2c(-c3ccc(F)o3)sc3ncnc(OC(Cc4ccccc4OCc4ccnc(C(F)(F)F)n4)C(=O)O)c23)ccc(OCCN(C)C)c1Cl [Example 201, (2R)-2-{[(5Sa)-5-{3-chloro-4-[2-(dimethylamino)ethoxy]-2-methylphenyl}-6-(5-fluorofuran-2-yl)thieno[2,3-d]pyrimidin-4-yl]oxy}-3-(2-{[2-(trifluoromethyl)pyrimidin-4-yl]methoxy}phenyl)propanoic acid] | 5.8e-09 | 0.027
6 | Cc1c(-c2c(-c3ccc(F)o3)sc3ncnc(OC(Cc4ccccc4OCc4ccnc(OCC(F)(F)F)n4)C(=O)O)c23)ccc(OCCN(C)C)c1Cl [Example 203, (2R)-2-{[(5Sa)-5-{3-chloro-4-[2-(dimethylamino)ethoxy]-2-methylphenyl}-6-(5-fluorofuran-2-yl)thieno[2,3-d]pyrimidin-4-yl]oxy}-3-(2-{[2-(2,2,2-trifluoroethoxy)pyrimidin-4-yl]methoxy}phenyl)propanoic acid] | 9.1e-09 | 0.005
7 | Cc1c(-c2c(-c3ccc(F)o3)sc3ncnc(OC(Cc4ccccc4OCc4ccnn4CC(F)(F)F)C(=O)O)c23)ccc(OCCN(C)C)c1Cl [Example 205, (2R)-2-{[(5Sa)-5-{3-chloro-4-[2-(dimethylamino)ethoxy]-2-methylphenyl}-6-(5-fluorofuran-2-yl)thieno[2,3-d]pyrimidin-4-yl]oxy}-3-(2-{[1-(2,2,2-trifluoroethyl)-1H-pyrazol-5-yl]methoxy}phenyl)propanoic acid] | 3.8e-09 | 0.028
8 | Cc1c(-c2c(-c3ccc(F)o3)sc3ncnc(OC(Cc4ccccc4OCc4cnccn4)C(=O)O)c23)ccc(OCCN(C)C)c1Cl [Example 206, (2R)-2-{[(5Sa)-5-{3-chloro-4-[2-(dimethylamino)ethoxy]-2-methylphenyl}-6-(5-fluorofuran-2-yl)thieno[2,3-d]pyrimidin-4-yl]oxy}-3-[2-(pyrazin-2-ylmethoxy)phenyl]propanoic acid] | 8e-09 | 0.135
9 | Cc1c(-c2c(-c3ccco3)sc3ncnc(OC(Cc4ccccc4OC(C)C)C(=O)O)c23)ccc(OCCN2CCN(C)CC2)c1Cl [Example 210, (2R)-2-{[(5Sa)-5-{3-chloro-2-methyl-4-[2-(4-methylpiperazin-1-yl)ethoxy]phenyl}-6-(furan-2-yl)thieno[2,3-d]pyrimidin-4-yl]oxy}-3-[2-(propan-2-yloxy)phenyl]propanoic acid] | 1e-08 | 0.406
10 | Cc1c(-c2c(-c3ccco3)sc3ncnc(OC(Cc4ccccc4OC4CCCC4)C(=O)O)c23)ccc(OCCN2CCN(C)CC2)c1Cl [Example 212, (2R)-2-{[(5Sa)-5-{3-chloro-2-methyl-4-[2-(4-methylpiperazin-1-yl)ethoxy]phenyl}-6-(furan-2-yl)thieno[2,3-d]pyrimidin-4-yl]oxy}-3-[2-(cyclopentyloxy)phenyl]propanoic acid] | 1.6e-08 | 0.616
11 | C#CCOc1ccccc1CC(Oc1ncnc2sc(-c3ccco3)c(-c3ccc(OCCN4CCN(C)CC4)c(Cl)c3C)c12)C(=O)O [Example 216, (2R)-2-{[(5Sa)-5-{3-chloro-2-methyl-4-[2-(4-methylpiperazin-1-yl)ethoxy]phenyl}-6-(furan-2-yl)thieno[2,3-d]pyrimidin-4-yl]oxy}-3-[2-(prop-2-yn-1-yloxy)phenyl]propanoic acid] | 8.5e-09 | 0.217
12 | CNC(=O)COc1ccccc1CC(Oc1ncnc2sc(-c3ccco3)c(-c3ccc(OCCN4CCN(C)CC4)c(Cl)c3C)c12)C(=O)O [Example 218, (2R)-2-{[(5Sa)-5-{3-chloro-2-methyl-4-[2-(4-methylpiperazin-1-yl)ethoxy]phenyl}-6-(furan-2-yl)thieno[2,3-d]pyrimidin-4-yl]oxy}-3-{2-[2-(methylamino)-2-oxoethoxy]phenyl}propanoic acid] | 6.5e-09 | 0.805

Continued by falling IC50 [2], values first:

Row | IC50 [2] [M] | Compound | IC50 [1] [µM]
13 | 9.3e-09 | Cc1c(-c2c(-c3ccco3)sc3ncnc(OC(Cc4ccccc4OC4CCN(C)C4)C(=O)O)c23)ccc(OCCN2CCN(C)CC2)c1Cl [Example 214, (2R)-2-{[(5Sa)-5-{3-chloro-2-methyl-4-[2-(4-methylpiperazin-1-yl)ethoxy]phenyl}-6-(furan-2-yl)thieno[2,3-d]pyrimidin-4-yl]oxy}-3-{2-[(1-methylpyrrolidin-3-yl)oxy]phenyl}propanoic acid] | 0.897
14 | 8e-09 | COCCOc1ccccc1CC(Oc1ncnc2sc(-c3ccc(F)o3)c(-c3ccc(OCCN4CCN(C)CC4)c(Cl)c3C)c12)C(=O)O [Example 194, (2R)-2-{[(5Sa)-5-{3-chloro-2-methyl-4-[2-(4-methylpiperazin-1-yl)ethoxy]phenyl}-6-(5-fluorofuran-2-yl)thieno[2,3-d]pyrimidin-4-yl]oxy}-3-[2-(2-methoxyethoxy)phenyl]propanoic acid] | 0.058
15 | 8e-09 | CCOc1ccccc1CC(Oc1ncnc2sc(-c3ccco3)c(-c3ccc(OCCN4CCN(C)CC4)c(Cl)c3C)c12)C(=O)O [Example 215, (2R)-2-{[(5Sa)-5-{3-chloro-2-methyl-4-[2-(4-methylpiperazin-1-yl)ethoxy]phenyl}-6-(furan-2-yl)thieno[2,3-d]pyrimidin-4-yl]oxy}-3-(2-ethoxyphenyl)propanoic acid] | 0.203
16 | 6.5e-09 | Cc1c(-c2c(-c3ccco3)sc3ncnc(OC(Cc4ccccc4O)C(=O)O)c23)ccc(OCCN2CCN(C)CC2)c1Cl [Example 207, (2R)-2-{[-[(5Sa)-5-{3-chloro-2-methyl-4-[2-(4-methylpiperazin-1-yl)ethoxy]phenyl}-6-(furan-2-yl)thieno[2,3-d]pyrimidin-4-yl]oxy}-3-(2-hydroxyphenyl)propanoic acid] | 0.186
17 | 5.5e-09 | Cc1c(-c2c(-c3ccco3)sc3ncnc(OC(Cc4ccccc4OC(C)c4ccncc4)C(=O)O)c23)ccc(OCCN2CCN(C)CC2)c1Cl [Example 208, (2R)-2-{[(5Sa)-5-{3-chloro-2-methyl-4-[2-(4-methylpiperazin-1-yl)ethoxy]phenyl}-6-(furan-2-yl)thieno[2,3-d]pyrimidin-4-yl]oxy}-3-{2-[(1R)-1-(pyridin-4-yl)ethoxy]phenyl}propanoic acid] | 0.571
18 | 5.4e-09 | COCCOCCOCCOc1ccccc1CC(Oc1ncnc2sc(-c3ccc(F)o3)c(-c3ccc(OCCN4CCN(C)CC4)c(Cl)c3C)c12)C(=O)O [Example 197, (2R)-2-{[(5Sa)-5-{3-chloro-2-methyl-4-[2-(4-methylpiperazin-1-yl)ethoxy]phenyl}-6-(5-fluorofuran-2-yl)thieno[2,3-d]pyrimidin-4-yl]oxy}-3-(2-{2-[2-(2-methoxyethoxy)ethoxy]ethoxy}phenyl)propanoic acid] | 0.07
19 | 5.3e-09 | Cc1c(-c2c(-c3ccco3)sc3ncnc(OC(Cc4ccccc4OCC(=O)N(C)C)C(=O)O)c23)ccc(OCCN2CCN(C)CC2)c1Cl [Example 217, (2R)-2-{[(5Sa)-5-{3-chloro-2-methyl-4-[2-(4-methylpiperazin-1-yl)ethoxy]phenyl}-6-(furan-2-yl)thieno[2,3-d]pyrimidin-4-yl]oxy}-3-{2-[2-(dimethylamino)-2-oxoethoxy]phenyl}propanoic acid] | 1.48
20 | 4.9e-09 | CCn1nccc1COc1ccccc1CC(Oc1ncnc2sc(-c3ccc(F)o3)c(-c3ccc(OCCN(C)C)c(Cl)c3C)c12)C(=O)O [Example 204, (2R)-2-{[(5Sa)-5-{3-chloro-4-[2-(dimethylamino)ethoxy]-2-methylphenyl}-6-(5-fluorofuran-2-yl)thieno[2,3-d]pyrimidin-4-yl]oxy}-3-{2-[(1-ethyl-1H-pyrazol-5-yl)methoxy]phenyl}propanoic acid] | 0.034
